In publication PMC10587081, “Biochemical and structural basis of mercuric reductase, GbsMerA, from Gelidibacter salicanalis PAMC21136” (Scientific Reports, 2023):

Tests used:
[1] = molecular target: T1, GbsMerA (Gelidibacter salicanalis, UniProt A0A934NG65); assay: X-ray crystal structure; format: binding
T1 construct: gene JEM65_00875; full length, 449 aa, pET32a(+) (BamHI/XhoI), N-terminal His6 tag and vector tag cleaved with enterokinase, E. coli BL21, SEC, homodimer with non-covalent FAD; no NmerA domain and no C-terminal Cys-Cys motif; primers encode N-terminus MKEYDV and C-terminus IPHML
T1 sequence (A0A934NG65 1-448): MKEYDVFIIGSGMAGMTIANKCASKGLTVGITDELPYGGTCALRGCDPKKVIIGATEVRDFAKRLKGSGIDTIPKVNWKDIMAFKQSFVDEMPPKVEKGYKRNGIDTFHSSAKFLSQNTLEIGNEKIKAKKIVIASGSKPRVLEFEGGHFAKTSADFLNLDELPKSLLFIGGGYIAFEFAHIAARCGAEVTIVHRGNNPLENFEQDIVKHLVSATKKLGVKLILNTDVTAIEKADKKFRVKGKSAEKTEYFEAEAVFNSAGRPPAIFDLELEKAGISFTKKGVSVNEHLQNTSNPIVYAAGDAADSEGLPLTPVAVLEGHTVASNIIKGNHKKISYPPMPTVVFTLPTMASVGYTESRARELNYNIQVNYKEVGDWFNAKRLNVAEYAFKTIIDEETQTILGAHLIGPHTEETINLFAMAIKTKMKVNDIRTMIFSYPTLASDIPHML

[2] = molecular target: mercuric reductase GbsMerA from Gelidibacter salicanalis PAMC21136 (Gelidibacter salicanalis PAMC21136); assay: crystal structure; sitting drop vapor diffusion at 22 °C; GbsMerA 35 mg/mL with 1.6 M sodium phosphate monobasic/0.4 M potassium phosphate dibasic, 0.1 M sodium phosphate dibasic/citric acid pH 4.2; homodimer in the asymmetric unit

For `Cc1cc2nc3c(=O)[nH]c(=O)nc-3n(C[C@H](O)[C@H](O)[C@H](O)COP(=O)(O)OP(=O)(O)OC[C@H]3O[C@@H](n4cnc5c(N)ncnc54)[C@H](O)[C@@H]3O)c2cc1C` [FAD], the X-ray crystal structure ([1]; 2.6 Å, non-covalently bound FAD in FAD-binding domain, crystallised at pH 4.2 (phosphate/citrate)) was “Non-covalently bound FAD is located in the central region of the FAD-binding domain”.

With `NC(=O)C1=CN([C@@H]2O[C@H](COP(=O)(O)OP(=O)(O)OC[C@H]3O[C@@H](n4cnc5c(N)ncnc54)[C@H](OP(=O)(O)O)[C@@H]3O)[C@@H](O)[C@H]2O)C=CC1` [NADPH] the X-ray crystal structure ([1]; complex with FAD and NADPH, bicine/Trizma pH 8.5, re-face of the FAD isoalloxazine ring) was “Furthermore, we determined the GbsMerA–NADPH complex structure”.

For “mercuric reductase GbsMerA from Gelidibacter salicanalis PAMC21136 (enzyme)”, the stoichiometry N [2] was 2.
